This is an account of results in patent US20250134901A1, “PHARMACEUTICAL COMPOSITION CONTAINING COMBINATION OF MELOXICAM AND RIZATRIPTAN AND PROCESS OF PREPARATION THEREOF” (Alembic Pharmaceuticals Limited, priority 2021, published 2025).

≈ marks a conversion by molar mass, not a printed value. Like-named read-outs stand apart in the source and are kept apart here.

In general, solubility refers to the dissolved amount per volume that the medium holds.

A short description of the data set: Solubility of meloxicam API in different pH buffered solutions. Type of data set: physicochemical. Conditions: read-out: Meloxicam API Solubility (BCS).

In the case of `Cc1cnc(NC(=O)C2=C(O)c3ccccc3S(=O)(=O)N2C)s1` [Meloxicam, 4-hydroxy-2-methyl-N-(5-methyl-2-thiazolyl)-2H-1,2-benzothiazine-3-carboxamide-1,1-dioxide], the solubility by setting is: (aqueous buffer, pH 4.5 Acetate buffer) 30 µg/mL (≈ 85.4 µM); (aqueous buffer, pH 6.8 Phosphate Buffer) 2700 µg/mL (≈ 7680 µM); (aqueous buffer, pH 7.5 Phosphate buffer) 110 µg/mL (≈ 313 µM); (simulated gastric fluid, 0.01N HCl (pH 2.0)) 20 µg/mL (≈ 56.9 µM).
